According to ChEMBL document CHEMBL1201862, “PubChem BioAssay data set” (2004):
Several values for one entry are separate records, joined by “and”; a condition that tells them apart may be missing. Equal values may be shown once. One block for each molecule: values may come before it. Activity calls are given as the source filed them.

Assays:
[1] = biological target: Cytochrome P450 2D6 (Homo sapiens, UniProt P10635); experiment: qHTS Assay for Inhibitors and Substrates of Cytochrome P450 2D6. [Related pubchem assays: 410 ]; assay type: ADME; details: read-out: Potency
Sequence of Cytochrome P450 2D6 (P10635 whole entry): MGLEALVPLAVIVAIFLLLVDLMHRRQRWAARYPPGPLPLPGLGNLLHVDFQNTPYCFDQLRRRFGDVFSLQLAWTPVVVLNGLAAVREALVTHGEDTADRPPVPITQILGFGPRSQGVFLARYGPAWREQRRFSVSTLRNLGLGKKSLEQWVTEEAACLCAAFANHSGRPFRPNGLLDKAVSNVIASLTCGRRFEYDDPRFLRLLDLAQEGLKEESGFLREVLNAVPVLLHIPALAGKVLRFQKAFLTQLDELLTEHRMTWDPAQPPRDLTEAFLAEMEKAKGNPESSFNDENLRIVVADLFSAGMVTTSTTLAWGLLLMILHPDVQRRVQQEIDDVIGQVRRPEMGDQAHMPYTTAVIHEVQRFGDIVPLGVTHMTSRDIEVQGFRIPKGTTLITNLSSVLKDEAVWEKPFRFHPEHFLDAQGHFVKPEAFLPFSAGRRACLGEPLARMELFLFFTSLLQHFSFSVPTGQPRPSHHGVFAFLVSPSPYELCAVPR

[2] = biological target: Cytochrome P450 2C19 (Homo sapiens, UniProt P33261); experiment: qHTS Assay for Inhibitors and Substrates of Cytochrome P450 2C19. [Related pubchem assays: 410 ]; assay type: ADME; details: read-out: Potency
Sequence of Cytochrome P450 2C19 (P33261 whole entry): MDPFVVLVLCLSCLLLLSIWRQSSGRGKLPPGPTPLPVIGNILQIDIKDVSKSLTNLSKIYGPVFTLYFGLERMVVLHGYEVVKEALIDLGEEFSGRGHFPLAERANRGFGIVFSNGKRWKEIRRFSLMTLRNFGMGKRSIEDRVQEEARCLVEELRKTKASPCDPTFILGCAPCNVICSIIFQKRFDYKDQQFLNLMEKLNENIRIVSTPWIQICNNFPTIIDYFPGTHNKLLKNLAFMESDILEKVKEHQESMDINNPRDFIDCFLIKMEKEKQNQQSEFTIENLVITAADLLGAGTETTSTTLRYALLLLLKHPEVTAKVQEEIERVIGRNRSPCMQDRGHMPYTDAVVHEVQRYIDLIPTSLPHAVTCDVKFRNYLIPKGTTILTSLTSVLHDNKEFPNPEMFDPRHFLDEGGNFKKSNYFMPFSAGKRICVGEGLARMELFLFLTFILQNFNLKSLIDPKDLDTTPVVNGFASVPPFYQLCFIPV

[3] = biological target: E3 ubiquitin-protein ligase Mdm2 (Homo sapiens, UniProt Q00987); experiment: MDM2-luc reporter signal enhancers, multi-concentration potency testing, MDM2 ubiquitin-protein ligase inhibitor program, whole-cell format, luminescence detection, 384-well microplate (AID 1394); assay type: functional;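 note: MDM2 E3 inhibitors raise luminescence so EC50 is for signal enhancement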
Sequence of E3 ubiquitin-protein ligase Mdm2 (Q00987 whole entry): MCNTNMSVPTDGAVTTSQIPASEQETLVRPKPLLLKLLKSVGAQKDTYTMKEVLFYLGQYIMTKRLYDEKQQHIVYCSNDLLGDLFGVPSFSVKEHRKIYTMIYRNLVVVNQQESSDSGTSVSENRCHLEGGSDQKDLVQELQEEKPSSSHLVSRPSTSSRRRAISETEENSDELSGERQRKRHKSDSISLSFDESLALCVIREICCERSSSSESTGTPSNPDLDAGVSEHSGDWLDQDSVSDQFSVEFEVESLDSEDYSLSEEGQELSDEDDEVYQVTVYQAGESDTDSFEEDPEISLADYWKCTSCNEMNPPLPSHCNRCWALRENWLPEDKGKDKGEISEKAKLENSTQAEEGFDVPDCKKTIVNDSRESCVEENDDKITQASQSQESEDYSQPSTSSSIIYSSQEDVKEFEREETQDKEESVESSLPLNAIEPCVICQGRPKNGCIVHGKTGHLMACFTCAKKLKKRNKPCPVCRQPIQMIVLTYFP

[4] = antiviral protection against BTV-induced cell death – arbovirus, BSR cells, confirmation (AID 1250); assay type: functional;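 note: protection from viral cytopathic effect measured as cell viability by ATP luminescence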
[5] = biological target: Cytochrome P450 3A4 (Homo sapiens, UniProt P08684);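 note: CYP3A4 tested as one member of a cytochrome P450 panel screen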
Sequence of Cytochrome P450 3A4 (P08684 whole entry): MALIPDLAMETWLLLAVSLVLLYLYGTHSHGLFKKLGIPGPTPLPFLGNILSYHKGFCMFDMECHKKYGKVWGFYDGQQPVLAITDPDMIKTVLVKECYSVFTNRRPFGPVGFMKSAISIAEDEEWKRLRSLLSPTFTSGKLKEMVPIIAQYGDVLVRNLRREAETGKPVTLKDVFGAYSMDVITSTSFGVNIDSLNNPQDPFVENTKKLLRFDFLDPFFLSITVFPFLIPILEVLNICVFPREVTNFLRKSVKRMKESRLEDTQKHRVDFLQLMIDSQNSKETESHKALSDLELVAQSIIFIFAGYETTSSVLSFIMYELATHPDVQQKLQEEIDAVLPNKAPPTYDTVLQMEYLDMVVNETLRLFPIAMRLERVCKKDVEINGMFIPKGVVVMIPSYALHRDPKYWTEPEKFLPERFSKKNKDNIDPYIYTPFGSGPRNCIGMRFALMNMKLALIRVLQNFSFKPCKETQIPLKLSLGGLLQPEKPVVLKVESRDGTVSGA

[6] = biological target: Photoreceptor-specific nuclear receptor (Homo sapiens, UniProt Q9Y5X4); assay type: functional;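 note: potency for compounds that break the NR2E3 corepressor complex and count as activators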
[7] = biological target: Peroxisome proliferator-activated receptor gamma/Nuclear receptor corepressor 2 (Homo sapiens, UniProt P37231+Q9Y618); assay type: functional
Sequence of Peroxisome proliferator-activated receptor gamma/Nuclear receptor corepressor 2 (P37231 whole entry): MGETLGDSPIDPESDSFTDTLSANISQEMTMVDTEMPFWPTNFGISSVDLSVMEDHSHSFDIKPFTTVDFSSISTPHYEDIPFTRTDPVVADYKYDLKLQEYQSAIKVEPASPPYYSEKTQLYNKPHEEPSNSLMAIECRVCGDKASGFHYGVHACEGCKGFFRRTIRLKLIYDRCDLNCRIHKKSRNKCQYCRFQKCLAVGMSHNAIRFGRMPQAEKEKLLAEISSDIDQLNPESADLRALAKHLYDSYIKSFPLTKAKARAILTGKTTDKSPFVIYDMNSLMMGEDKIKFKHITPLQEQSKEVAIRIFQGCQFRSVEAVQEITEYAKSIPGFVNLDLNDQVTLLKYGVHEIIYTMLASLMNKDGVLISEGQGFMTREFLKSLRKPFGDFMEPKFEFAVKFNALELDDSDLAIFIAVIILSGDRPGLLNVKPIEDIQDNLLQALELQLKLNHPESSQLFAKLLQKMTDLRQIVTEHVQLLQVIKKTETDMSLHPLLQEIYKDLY
Sequence of Peroxisome proliferator-activated receptor gamma/Nuclear receptor corepressor 2 (Q9Y618 whole entry): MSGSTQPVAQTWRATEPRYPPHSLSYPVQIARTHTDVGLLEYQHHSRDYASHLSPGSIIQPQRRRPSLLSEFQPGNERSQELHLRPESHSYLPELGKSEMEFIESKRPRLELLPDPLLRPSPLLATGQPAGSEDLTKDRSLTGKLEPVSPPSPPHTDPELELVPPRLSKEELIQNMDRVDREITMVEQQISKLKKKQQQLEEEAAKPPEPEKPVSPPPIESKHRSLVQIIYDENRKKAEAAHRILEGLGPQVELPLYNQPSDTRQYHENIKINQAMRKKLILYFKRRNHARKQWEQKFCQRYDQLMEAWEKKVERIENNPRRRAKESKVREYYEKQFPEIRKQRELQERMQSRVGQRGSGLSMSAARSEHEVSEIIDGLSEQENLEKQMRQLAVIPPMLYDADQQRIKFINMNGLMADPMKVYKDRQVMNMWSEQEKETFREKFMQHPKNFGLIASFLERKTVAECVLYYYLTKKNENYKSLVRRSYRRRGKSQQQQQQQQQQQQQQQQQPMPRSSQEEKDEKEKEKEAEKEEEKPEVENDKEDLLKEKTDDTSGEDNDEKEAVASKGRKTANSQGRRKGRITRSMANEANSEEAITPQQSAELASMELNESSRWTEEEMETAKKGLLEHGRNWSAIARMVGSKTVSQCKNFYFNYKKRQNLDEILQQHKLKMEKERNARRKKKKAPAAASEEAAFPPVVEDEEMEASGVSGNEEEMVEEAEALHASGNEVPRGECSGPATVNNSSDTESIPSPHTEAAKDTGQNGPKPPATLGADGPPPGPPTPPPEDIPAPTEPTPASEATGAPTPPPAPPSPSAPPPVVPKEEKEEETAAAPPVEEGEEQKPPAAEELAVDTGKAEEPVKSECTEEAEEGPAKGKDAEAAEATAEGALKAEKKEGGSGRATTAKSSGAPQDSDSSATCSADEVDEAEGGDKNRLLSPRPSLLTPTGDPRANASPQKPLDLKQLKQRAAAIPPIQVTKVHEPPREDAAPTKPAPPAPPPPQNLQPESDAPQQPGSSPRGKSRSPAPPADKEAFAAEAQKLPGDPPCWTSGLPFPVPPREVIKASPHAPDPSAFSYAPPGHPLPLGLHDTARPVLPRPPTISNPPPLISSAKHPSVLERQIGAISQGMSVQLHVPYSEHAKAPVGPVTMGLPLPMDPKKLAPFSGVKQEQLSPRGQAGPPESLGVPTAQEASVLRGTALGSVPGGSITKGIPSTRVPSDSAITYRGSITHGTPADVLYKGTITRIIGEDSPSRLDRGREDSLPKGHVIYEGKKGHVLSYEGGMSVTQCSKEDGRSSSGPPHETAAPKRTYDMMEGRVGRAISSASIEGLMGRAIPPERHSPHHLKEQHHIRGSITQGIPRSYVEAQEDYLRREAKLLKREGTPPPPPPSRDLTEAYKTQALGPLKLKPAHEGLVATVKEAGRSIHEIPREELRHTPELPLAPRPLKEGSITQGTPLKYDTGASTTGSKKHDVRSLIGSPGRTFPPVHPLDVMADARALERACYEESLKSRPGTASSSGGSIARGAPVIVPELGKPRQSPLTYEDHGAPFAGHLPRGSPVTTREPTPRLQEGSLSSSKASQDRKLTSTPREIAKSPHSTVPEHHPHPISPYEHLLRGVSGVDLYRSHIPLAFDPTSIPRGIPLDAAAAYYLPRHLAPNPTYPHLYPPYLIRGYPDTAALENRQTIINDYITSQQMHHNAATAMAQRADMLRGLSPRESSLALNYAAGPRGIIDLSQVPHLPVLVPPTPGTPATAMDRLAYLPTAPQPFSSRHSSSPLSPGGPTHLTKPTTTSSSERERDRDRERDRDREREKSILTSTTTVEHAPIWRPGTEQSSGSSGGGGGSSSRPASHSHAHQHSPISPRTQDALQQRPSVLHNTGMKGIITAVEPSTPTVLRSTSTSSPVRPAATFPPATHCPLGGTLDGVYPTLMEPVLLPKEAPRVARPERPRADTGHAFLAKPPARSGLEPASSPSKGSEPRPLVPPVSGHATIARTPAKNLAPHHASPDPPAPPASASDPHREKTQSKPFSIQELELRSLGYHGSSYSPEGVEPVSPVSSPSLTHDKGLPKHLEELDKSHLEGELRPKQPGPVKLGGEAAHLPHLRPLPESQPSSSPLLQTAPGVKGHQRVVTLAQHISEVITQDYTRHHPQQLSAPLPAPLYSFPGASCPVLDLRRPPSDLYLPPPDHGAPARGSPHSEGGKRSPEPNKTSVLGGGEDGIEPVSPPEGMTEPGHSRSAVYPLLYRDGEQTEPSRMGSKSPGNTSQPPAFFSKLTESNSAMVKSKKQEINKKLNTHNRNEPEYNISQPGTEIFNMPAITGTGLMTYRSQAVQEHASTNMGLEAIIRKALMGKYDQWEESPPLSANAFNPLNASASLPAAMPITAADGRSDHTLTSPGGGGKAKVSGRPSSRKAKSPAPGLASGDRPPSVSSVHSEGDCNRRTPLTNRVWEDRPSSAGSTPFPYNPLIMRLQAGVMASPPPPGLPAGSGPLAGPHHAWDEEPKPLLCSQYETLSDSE

AC50 ([1]; human): 3.16 µM (inconclusive)
AC50 [1]: 3.16 µM (inconclusive)
SMILES: CCCCC1CN2C(CCC(C)C2c2ccc(Br)cc2)C(=O)O1 (stereo not given)
AC50 [2]: 3.16 µM (inconclusive) and 7.94 µM (inconclusive)

EC50 [3]: 9.58 µM (not active)
SMILES: CCOC(=O)C1C(c2ccccc2)N(C)OC1(O)C(F)(F)F (stereo not given)

AC50 [5]: 11.2 µM (inconclusive)
SMILES: C=CCSc1nc(O)c2sc3nc(C)cc(C)c3c2n1
IC50 [4]: 25.4 µM (active)

Second part, the molecule before the results:

SMILES: CC1C=CCCOC1c1ccccc1 (stereo not given)
AC50 [2]: 3.98 µM (inconclusive)

SMILES: COCCCN1C(=O)C(O)=C(C(=O)c2ccc(C)o2)C1c1cccc(Br)c1 (stereo not given)
IC50 [6]: > 39.8 µM (not active)
IC50 [7]: 11.1 µM (not active)

SMILES: O=c1oc(-c2cccs2)nc2scc(-c3cccs3)c12
IC50 [4]: 24.2 µM (active)
